Test results taken from US9833497B2, “Human originated EGF domain proteins and use of the same” (CHENGDU SOURCEBIO LIMITED-LIABILITY COMPANY, priority 2013, dated 2017).

Legend:
Type in all cases: cell-based
E. coli DH5α = test: Antibacterial activity: MIC and growth curve against E. coli DH5α in 96-well plate; settings: minimal inhibitory concentration against E. coli DH5α; 96-well plate, 5×10^5 CFU/mL, 37° C., judged after 8 h
Summary of the method: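 Log-phase bacteria (OD600 ~0.5) resuspended in LB at 5×10^5 CFU/mL, exposed to recombinant protein at 50, 25, 12.5 μg/mL final in triplicate, 37 °C shaking at 175 rpm. OD600 read every 30 min; MIC is lowest concentration showing no growth.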

E. coli BL21 = test: MIC against Gram-negative bacteria: E. coli BL21; settings: 10 h cultivation at 37° C., 5×10^5 CFU/mL
Summary of the method: (§1)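 Two-fold serial dilutions of each purified human EGF domain protein, three replicate wells per level, were combined with bacteria at a final 5×10^5 CFU/mL in LB. Cultures were shaken at 175 rpm, 37° C. The MIC was taken as the minimum concentration preventing growth.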

Pseudomonas aeruginosa = test: MIC against Gram-negative bacteria: Pseudomonas aeruginosa; settings: 10 h cultivation at 37° C., 5×10^5 CFU/mL
Summary of the method: as §1

Klebsiella pneumonia = test: MIC against Gram-negative bacteria: Klebsiella pneumonia; settings: 10 h cultivation at 37° C., 5×10^5 CFU/mL
Summary of the method: as §1

Enterobacter cloacae = test: MIC against Gram-negative bacteria: Enterobacter cloacae; settings: 10 h cultivation at 37° C., 5×10^5 CFU/mL
Summary of the method: as §1

Aeromonas hydrophila = test: MIC against Gram-negative bacteria: Aeromonas hydrophila; settings: 10 h cultivation at 37° C., 5×10^5 CFU/mL
Summary of the method: as §1

Citrobacter diversus = test: MIC against Gram-negative bacteria: Citrobacter diversus; settings: 10 h cultivation at 37° C., 5×10^5 CFU/mL
Summary of the method: as §1

Moraxella catarrhalis = test: MIC against Gram-negative bacteria: Moraxella catarrhalis; settings: 10 h cultivation at 37° C., 5×10^5 CFU/mL
Summary of the method: as §1

Proteus mirabilis = test: MIC against Gram-negative bacteria: Proteus mirabilis; settings: 10 h cultivation at 37° C., 5×10^5 CFU/mL
Summary of the method: as §1

Proteus vulgaris = test: MIC against Gram-negative bacteria: Proteus vulgaris; settings: 10 h cultivation at 37° C., 5×10^5 CFU/mL
Summary of the method: as §1

Serratia marcescens = test: MIC against Gram-negative bacteria: Serratia marcescens; settings: 10 h cultivation at 37° C., 5×10^5 CFU/mL
Summary of the method: as §1

| Substance | MIC (E. coli DH5α) [µg/mL] | MIC (μg/mL) E. coli BL21 (E. coli BL21; E. coli BL21) [µg/mL] | MIC (μg/mL) P. aeruginosa (Pseudomonas aeruginosa) [µg/mL] | MIC (μg/mL) K. pneumonia (Klebsiella pneumonia) [µg/mL] | MIC (μg/mL) E. cloacae (Enterobacter cloacae) [µg/mL] | MIC (μg/mL) A. hydrophila (Aeromonas hydrophila) [µg/mL] | MIC (μg/mL) C. diversus (Citrobacter diversus) [µg/mL] | MIC (μg/mL) M. catarrhalis (Moraxella catarrhalis) [µg/mL] | MIC (μg/mL) P. mirabilis (Proteus mirabilis) [µg/mL] | MIC (μg/mL) P. vulgaris (Proteus vulgaris) [µg/mL] | MIC (μg/mL) S. marcescens (Serratia marcescens) [µg/mL] | also measured |
| --- | --- | --- | --- | --- | --- | --- | --- | --- | --- | --- | --- | --- |
| PRT220 (DINECETTNECREDEMCWNYHGGFRCYPRNPCQDPYILTPENRCV; listed as Homo sapiens) | 25 | 25 | 12.5 | 25 | 12.5 | 25 | 12.5 | 12.5 | 12.5 | 12.5 | 50 |  |
| PRT1046 (WGFSCNASCQCAHEAVCSPQTGACTCTPGWHGAHCQ; listed as Homo sapiens) | 50 |  |  |  |  |  |  |  |  |  |  | MIC E. coli BL21 (E. coli BL21; two-fold serial dilution): 25 µg/mL; MIC P. aeruginosa (Pseudomonas aeruginosa; two-fold serial dilution): 50 µg/mL; MIC K. pneumonia (Klebsiella pneumonia; two-fold serial dilution): 25 µg/mL; MIC E. cloacae (Enterobacter cloacae; two-fold serial dilution): 25 µg/mL; MIC A. hydrophila (Aeromonas hydrophila; two-fold serial dilution): 12.5 µg/mL; MIC C. diversus (Citrobacter diversus; two-fold serial dilution): 50 µg/mL; MIC M. catarrhalis (Moraxella catarrhalis; two-fold serial dilution): 50 µg/mL; MIC P. mirabilis (Proteus mirabilis; two-fold serial dilution): 50 µg/mL; MIC P. vulgaris (Proteus vulgaris; two-fold serial dilution): 25 µg/mL; MIC S. marcescens (Serratia marcescens; two-fold serial dilution): 12.5 µg/mL |
| PRT788 (WGPHCTSRCQCKNGALCNPITGACHCAAGFRGWRCE; listed as Homo sapiens) | 50 | 100 | 50 | 25 | 12.5 | 25 | 50 | 25 | 12.5 | 50 | 50 |  |
| PRT1391 (PLPVCQEQCSGHGTFLLDAGVCSCDPKWTGSDCS; listed as Homo sapiens) | 12.5 |  |  |  |  |  |  |  |  |  |  | MIC against E. coli BL21 (E. coli BL21; E. coli BL21): 12.5 µg/mL; MIC against P. aeruginosa (Pseudomonas aeruginosa; Pseudomonas aeruginosa): 12.5 µg/mL; MIC against K. pneumonia (Klebsiella pneumonia; Klebsiella pneumonia): 12.5 µg/mL; MIC against E. cloacae (Enterobacter cloacae; Enterobacter cloacae): 12.5 µg/mL; MIC against A. hydrophila (Aeromonas hydrophila; Aeromonas hydrophila): 12.5 µg/mL; MIC against C. diversus (Citrobacter diversus; Citrobacter diversus): 12.5 µg/mL; MIC against M. catarrhalis (Moraxella catarrhalis; Moraxella catarrhalis): 12.5 µg/mL; MIC against P. mirabilis (Proteus mirabilis; Proteus mirabilis): 12.5 µg/mL; MIC against P. vulgaris (Proteus vulgaris; Proteus vulgaris): 12.5 µg/mL; MIC against S. marcescens (Serratia marcescens; Serratia marcescens): 12.5 µg/mL |
| PRT264 (SGQCLCRSGFAGTACELCAPGAFGPHCQAC; listed as Homo sapiens) | 12.5 | 50 | 12.5 | 50 | 12.5 | 25 | 50 | 25 | 12.5 | 25 | 12.5 |  |
| PRT794 (SSRCGCKNDAVCSPVDGSCTCKAGWHGVDCS; listed as Homo sapiens) | 50 | 12.5 | 50 | 12.5 | 25 | 50 | 25 | 12.5 | 25 | 50 | 12.5 |  |
